Results taken from PMC8704748, “Repurposing the Trypanosomatidic GSK Kinetobox for the Inhibition of Parasitic Pteridine and Dihydrofolate Reductases” (Pharmaceuticals, 2021).
“Also recorded” adds a separate entry of the source. Like-named read-outs stand apart in the source and are kept apart here.

Tests used:
TbPTR1 = molecular target: T1, TbPTR1 (Trypanosoma brucei brucei, UniProt O76290); assay: TbPTR1 inhibition, Cytochrome C coupled spectrophotometric assay; assay type: biochemical; settings: for inhibition at 10 µM: primary screening, read-out: percentage of inhibition TbPTR1; for IC50: recombinant protein, standard errors within ± 10%
T1 sequence (O76290 1-268): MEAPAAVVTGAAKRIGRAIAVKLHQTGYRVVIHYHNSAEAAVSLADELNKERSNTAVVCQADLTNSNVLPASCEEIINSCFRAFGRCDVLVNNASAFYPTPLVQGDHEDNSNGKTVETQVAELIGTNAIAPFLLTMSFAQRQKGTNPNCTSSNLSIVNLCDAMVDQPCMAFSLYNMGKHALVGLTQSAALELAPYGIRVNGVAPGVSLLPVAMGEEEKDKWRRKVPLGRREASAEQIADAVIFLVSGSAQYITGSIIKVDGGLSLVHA

LmPTR1 = molecular target: T2, LmPTR1 (Leishmania major, UniProt Q01782); assay: LmPTR1 inhibition, Cytochrome C coupled spectrophotometric assay; assay type: biochemical; settings: for IC50: recombinant protein, standard errors within ± 10%; for inhibition at 10 µM: primary screening, read-out: percentage of inhibition LmPTR1
T2 sequence (Q01782 1-288): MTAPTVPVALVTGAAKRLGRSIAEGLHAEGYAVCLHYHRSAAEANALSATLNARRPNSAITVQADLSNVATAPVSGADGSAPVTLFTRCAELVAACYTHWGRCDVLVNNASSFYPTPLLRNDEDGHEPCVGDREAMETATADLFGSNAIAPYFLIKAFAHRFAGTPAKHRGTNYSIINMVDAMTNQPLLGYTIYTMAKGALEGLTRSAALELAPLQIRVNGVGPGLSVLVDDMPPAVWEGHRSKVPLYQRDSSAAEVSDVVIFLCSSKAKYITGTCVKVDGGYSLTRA

TbDHFR-TS = TbDHFR-TS (Trypanosoma brucei brucei, UniProt Q27783); assay: TbDHFR-TS inhibition, spectrophotometric DHF reduction assay (dose-response); assay type: biochemical; settings: recombinant TbDHFR-TS; 40, 20 and 10 µM tested; standard errors within ± 10%
LmDHFR-TS = LmDHFR-TS (Leishmania major, UniProt P07382); assay: LmDHFR-TS inhibition, spectrophotometric DHF reduction assay (dose-response); assay type: biochemical; settings: recombinant LmDHFR-TS; 40, 20 and 10 µM tested; standard errors within ± 10%
T. brucei = system: T. brucei; parameters: method as in PMID 25740547; settings: parasite growth inhibition, data from open resource GSK database ref 21, cited from earlier work
L. donovani = system: L. donovani; parameters: method as in PMID 25740547; settings: parasite growth inhibition, data from open resource GSK database ref 21, cited from earlier work
T. cruzi = system: T. cruzi; parameters: method as in PMID 25740547; settings: parasite growth inhibition ref 21; cited from earlier work

Sequence of LmDHFR-TS (P07382 whole entry): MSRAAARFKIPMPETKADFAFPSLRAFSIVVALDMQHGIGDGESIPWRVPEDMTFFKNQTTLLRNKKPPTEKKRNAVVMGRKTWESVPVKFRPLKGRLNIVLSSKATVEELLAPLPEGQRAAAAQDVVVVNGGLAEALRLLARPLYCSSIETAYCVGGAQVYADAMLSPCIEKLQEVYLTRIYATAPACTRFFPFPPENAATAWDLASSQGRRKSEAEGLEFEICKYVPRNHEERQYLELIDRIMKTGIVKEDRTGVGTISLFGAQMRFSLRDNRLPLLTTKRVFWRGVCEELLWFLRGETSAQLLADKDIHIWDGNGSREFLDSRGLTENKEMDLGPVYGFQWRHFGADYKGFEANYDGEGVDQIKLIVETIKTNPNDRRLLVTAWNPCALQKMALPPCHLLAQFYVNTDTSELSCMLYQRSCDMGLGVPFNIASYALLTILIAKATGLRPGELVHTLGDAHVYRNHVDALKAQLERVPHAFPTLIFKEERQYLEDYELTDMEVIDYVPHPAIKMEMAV
Sequence of TbDHFR-TS (Q27783 whole entry): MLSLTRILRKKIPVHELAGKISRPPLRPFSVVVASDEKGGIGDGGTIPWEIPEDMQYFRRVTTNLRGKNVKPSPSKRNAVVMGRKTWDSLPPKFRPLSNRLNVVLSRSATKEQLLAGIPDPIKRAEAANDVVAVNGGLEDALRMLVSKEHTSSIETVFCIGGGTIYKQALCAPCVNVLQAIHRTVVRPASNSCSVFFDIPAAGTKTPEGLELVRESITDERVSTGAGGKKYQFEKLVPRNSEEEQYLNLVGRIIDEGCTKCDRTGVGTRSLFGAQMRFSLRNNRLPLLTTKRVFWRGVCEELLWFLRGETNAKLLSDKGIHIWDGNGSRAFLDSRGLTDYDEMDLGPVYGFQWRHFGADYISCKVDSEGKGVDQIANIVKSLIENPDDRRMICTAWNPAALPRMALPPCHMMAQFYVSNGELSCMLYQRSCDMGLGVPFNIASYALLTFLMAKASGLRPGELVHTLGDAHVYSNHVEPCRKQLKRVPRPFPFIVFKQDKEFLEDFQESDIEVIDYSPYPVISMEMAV

SMILES | inhibition at 10 µM (TbPTR1) [%] | IC50 (TbPTR1) [µM] | IC50 (LmPTR1) [µM] | IC50 (TbDHFR-TS) [µM] | IC50 (LmDHFR-TS) [µM] | inhibition at 10 µM (LmPTR1) [%] | IC50 (TbPTR1; listed as 143606) [µM] | IC50 (LmPTR1; listed as 143606) [µM] | EC50 (T. brucei) [µM] | EC50 (L. donovani) [µM] | IC50 TbDHFR (TbDHFR-TS) | IC50 LmDHFR (LmDHFR-TS) | EC50 (T. cruzi) [µM] | EC50 (T. brucei; listed as 143606) [µM] | EC50 (L. donovani; listed as 143606) [µM]
Cc1ccc2c(c1)-c1onc(C(=O)N3CCCC[C@H]3c3cccnc3)c1CO2 [TCMDC-143191] | 51 | 9.8 | 38.5 | > 40 | > 40 | – | – | – | 39.8 | > 40 | – | – | – | – | –
CN(Cc1cc2ccccc2s1)c1ncc2c(N)nc(N)nc2n1 [TCMDC-143232] | – | 10.9 | 5.9 | > 40 | 24.4 | – | – | – | 28.4 | 29.5 | not active | – | – | – | –
N#Cc1cccc(Nc2nccc(N3CCC(NS(=O)(=O)c4cccc(C#N)c4)CC3)n2)c1 [TCMDC-143249] | – | 13.5 | 6 | > 40 | > 40 | – | – | – | 6.3 | 5.6 | inactive; also recorded: no inhibition | inactive; also recorded: no inhibition | 4.2 | – | –
COc1ccc(Oc2ccc(C(C)N(C)c3ncc4c(N)nc(N)nc4n3)cc2)cc1 (centres unmarked) [TCMDC-143295] | – | 7.9 | 6.7 | > 40 | 16.6 | – | – | – | – | 0.06 | not active | – | – | – | –
CC(c1ccc2c(c1)CCCC2)N(C)c1ncc2c(N)nc(N)nc2n1 (centres unmarked) [TCMDC-143296] | – | 8.6 | 6.5 | 9.7 | 6.9 | – | – | – | 14.2 | 1.8 | – | – | – | – | –
CC(c1cc(Cl)cc(Cl)c1)N(C)c1ncc2c(N)nc(N)nc2n1 (centres unmarked) [TCMDC-143297] | – | 9.8 | 5.7 | 11.6 | 20.1 | – | – | – | 35.7 | 0.6 | – | – | – | – | –
COc1ccc(C(C)N(C)c2ncc3c(N)nc(N)nc3n2)cc1F (centres unmarked) [TCMDC-143298] | – | 8.1 | 6 | > 40 | > 40 | – | – | – | 8.8 | 10.8 | did not show any activity | did not show any activity | – | – | –

Now from value to compound, other results behind:

inhibition at 10 µM (TbPTR1) [%] | IC50 (TbPTR1) [µM] | IC50 (LmPTR1) [µM] | IC50 (TbDHFR-TS) [µM] | IC50 (LmDHFR-TS) [µM] | inhibition at 10 µM (LmPTR1) [%] | IC50 (TbPTR1; listed as 143606) [µM] | IC50 (LmPTR1; listed as 143606) [µM] | SMILES | EC50 (T. brucei) [µM] | EC50 (L. donovani) [µM] | IC50 TbDHFR (TbDHFR-TS) | IC50 LmDHFR (LmDHFR-TS) | EC50 (T. cruzi) [µM] | EC50 (T. brucei; listed as 143606) [µM] | EC50 (L. donovani; listed as 143606) [µM]
– | 35 | 6.7 | > 40 | 25.8 | 75 | – | – | O=C1NCCn2ccc(Nc3nc(N[C@H]4CC[C@H](O)CC4)ncc3Cl)c21 [TCMDC-143386] | 0.6 | 1.4 | – | – | – | – | –
51 | 9.8 | > 40 | > 40 | > 40 | – | – | – | Cc1nc2c(-c3ncn[nH]3)cc(NC(=O)Cc3ccccc3)cn2c1C [TCMDC-143459] | 6.6 | 0.5 | – | – | – | – | –
– | 33.3 | 8.5 | > 40 | 25 | 59 | – | – | CCN(Cc1nc2ccc(C(=O)N3CCN(c4ncccn4)CC3)cc2[nH]1)C1CCCc2cccnc21 (centres unmarked) [TCMDC-143518] | 3.8 | 3.5 | – | – | – | – | –
– | ~6 | ~6 | > 40 | 19.4 | – | 6.4 | 6.8 | CCCc1nc2nc(N)nc(N)c2cc1CC [TCMDC-143606] | ~20 | ~20 | – | – | – | 22.5 | 27.2
– | 7.3 | 8.1 | > 40 | > 40 | – | – | – | Cc1cc(-c2ccc3ccccc3c2)nc2nc(N)nc(N)c12 [TCMDC-143607] | 25.8 | 2.7 | – | – | – | – | –
– | 7.3 | 9.3 | 38.2 | 40 | – | – | – | COc1ccccc1-c1c(C)[nH]c2nc(N)nc(C)c12 [TCMDC-143610] | 32.5 | 17.9 | – | – | – | – | –
– | 8.9 | 9.8 | > 40 | > 40 | – | – | – | Cc1cc(N(C)C)nc2ccc(Cc3cnc(N)nc3N)cc12 [TCMDC-143611] | 5 | > 40 | – | – | – | – | –
